The values below come from patent publication US20040019092A1, “Non-peptide somatostatin receptor ligands” (priority 2001, published 2004).

Where “and” joins values, the source holds several entries; their conditions need not be identical. Equal values may be shown once. Read-outs that look alike come from different tables or passages of the source.

A short description of data set [1]: Brain penetration in rat after 48-hour intravenous infusion. Format: in vivo. Particulars: rats; for concentration at 48 h / Kp at 48 h: male, rat, iv, 100 μg/h; for Kp at 48 h: brain/whole blood. The protocol:
The in vivo brain penetration of compound 42 after a 48-hour intravenous infusion was assessed. [^14C]-42-ch was intravenously administered to 5 male rats at a loading dose of 0.3 mg(-b)/rat and then infused at a constant rate of 100 μg(-b)/h for 48 hours using a syringe pump connected to the femoral vein. Immediately after stopping the infusion, the rats were sacrificed. Blood and brain were collected and analyzed for total radioactivity and unchanged compound 42.

Data set [2] concerns basal plasma levels of growth hormone, glucagon, insulin and glucose. In words: Endocrine parameters in the Rhesus monkey after subcutaneous administration. Format: in vivo. The protocol:
Therefore, they were further investigated in the Rhesus monkey and their activity profile was determined. Using subcutaneous administration, they were characterized in this species, by measuring their effects on the basal plasma levels of growth hormone, glucagon, insulin as well changes in glucose levels.
Animals and blood sampling: Rhesus monkeys, fed on the previous day in the morning with fruits only, were placed, slightly anesthetized with ketamin (Ketalar©, Parke-Davis), in primate chairs and brought to the experimental room. A catheter, consisting of an in-dwelling cannula (Vasocan Braunüle, 20G, B. Braun Melsungen AG, D-Melsungen), an extension line made from PP 800/110/260/100 Portex© tubing and a special adapter between cannula and tubing with a minimal void volume, was placed in a saphenic vein. The total volume of this catheter was approximately 0.7 mL. The distal end was placed through a hole in the wall to the adjacent room in order to allow infusion and blood sampling without being noticed by the animal. The animals were monitored with a video system.
During the entire duration of the experiment an infusion of 5 to 10 mL/h of isotonic saline (NaCl 0.9% Braun, B. Braun Medical AG, CH-Emmenbrücke) containing heparin sodium 80 mg/L (Biochemie GMBH, A-Kundl) was maintained, using a roller pump (Vario-Perpex, Guldener, CH-Zürich). At each sampling time 1.5 mL (twice the void volume of the catheter) was taken in one syringe before collecting the actual blood sample of 2 mL in another syringe. The first 1.5 mL were reinfused immediately after the actual sample had been taken. The sample was mixed with 0.1 mL of a mixture containing EDTA (ethlenediaminetetraacetic acid tetrasodium Fluka, CH-Buchs) and aprotinin (Trasylol©, Bayer) resulting in final concentrations of 1.8 mg/mL and 1000 KIE/mL, respectively. The blood samples were kept on ice and spun in a cooled centrifuge. […]
Determinations: The blood levels of the hormones were determined by radioimmunoassay (RIA) using the appropriate antisera, antibodies, labels and standards, glucose by an enzymatic assay: […]

In a further data set the test system is GH secretion. In words: Unanesthetized estradiol primed male rats, oral by gavage: GH. Format: in vivo, rat. Particulars: estradiol implant male rats, oral by gavage, 1 hour. The protocol: The inhibitory effect of the compounds on GH release may also be examined after oral application to male rats with oestradiol implants. This test is carried out as follows.
A loop (length 50 mmØ3 mm) of silastic with 50 mg of oestradiol is implanted under the dorsal skin of anaesthetized male OFA rats that have a weight of ca. 300 g. At various times (1 to 6 months later), these animals, in a fasted state, are used repeatedly for tests. The test substances are active in this test at doses from 0.1 to 5 mg/kg, when GH level in the blood serum is determined by radio-immunoassay 1 and 2 hours after oral administration.
Table 5 summarizes the results obtained in the estradiol primed male rats that received the compounds orally by gavage. These rats have stabilized elevated GH plasma levels as well as increased prolactin levels. In contrast to normal untreated rats, who's prolactin secretion is not sensitive to the inhibitory effect of somatostain, in these rats the prolactin secretion is inhibited to a similar degree as the GH secretion. Therefore, the inhibitory effect can be measured on 2 different parameters, GH and prolactin. The mean enteral absorption and activity of the respective compounds are shown.

The mark [3] stands for this setting: 48 hours i.v. infusion 100 μg/h.

As to `N#Cc1cc(S(=O)(=O)N2C(=O)N(CCCCCN)C(=O)C2Cc2c[nH]c3ccccc23)ccc1Oc1ccc(N)cc1` (stereo not shown) [Compound 42], the concentration at 48 h in data set [1] (brain, 48 hours i.v. infusion 100 μg/h, read-out: Concentration in brain, MEAN ± SD) came out at 18 ± 7 ng/g; in data set [1] (whole blood, 48-hours i.v. infusion of 100 μg/h, read-out: blood concentration), 66 ± 14 ng/mL; in data set [1] (whole blood, 48 hours i.v. infusion 100 μg/h, read-out: Concentration in blood, MEAN ± SD) it was 66 ± 14 ng/g; in data set [1] (whole blood, 48 hours i.v. infusion 100 μg/h, read-out: Concentration in blood, individual animals) it was 59 ng/g. For the same molecule, the Kp at 48 h turned out to be 0.27 ± 0.07 in data set [1] (48 hours i.v. infusion 100 μg/h, read-out: Brain/Blood Ratio, MEAN ± SD) and 0.27 in data set [1] (48 hours i.v. infusion 100 μg/h, read-out: Brain/Blood Ratio, individual animals). The “Brain/Blood Ratio, MEAN ± SD” value in data set [1] (setting [3]) is reported as 0.27 ± 0.07. Also, in data set [1] (setting [3]), the “Brain/Blood Ratio, individual animals” value is 0.27 and 0.38 and 0.21 and 0.22. The “Concentration in brain, MEAN ± SD” value in data set [1] (setting [3]) worked out at 18 ± 7 ng/g. In addition, in data set [1] (setting [3]), the “Concentration in brain, individual animals” value is 16 ng/g (2×) and 21 ng/g and 29 ng/g and 10 ng/g.

In the case of `Cc1cccc2c(CC3C(=O)N(CCCCCN)C(=O)N3S(=O)(=O)c3ccc(Oc4ccc(O)c(Cl)c4)c(C#N)c3)c[nH]c12` (stereo not shown) [Compound 44], the “inhibitory effects on hormone release” value in data set [2] (up to 1100 μg/kg) is on record as “no consistent inhibitory effects”. In the data set with GH secretion, the “GH 1 H ID50” value was 16 mg/kg; the “MEAN ID50 (GH and prolactin)” value was 16 mg/kg.

In the case of `Cc1cccc2c(CC3C(=O)N(CCCCCN)C(=O)N3S(=O)(=O)c3ccc(Oc4ccc(O)cc4)c(CN)c3)c[nH]c12` (stereo not shown) [Compound 45], in data set [2], the “dose levels necessary for inhibition of hormone release, times higher than Octreotride” value was “about 100 times”. Besides, in the data set with GH secretion, the “GH 1 H ID50” value turned out to be 8 mg/kg; the “MEAN ID50 (GH and prolactin)” value is 11.313 mg/kg.
